Source: patent publication US11584763B2, “Chromenopyridine derivatives as phosphatidylinositol phosphate kinase inhibitors” (HIBERCELL, INC., priority 2017, dated 2023)

Key:
PIP4K 2A = molecular target: T1, PIP4K 2A (Homo sapiens, UniProt P48426); test: ADP-glo kinase assay PIP4K 2A; type: biochemical; parameters: 4 nM PIP4K2A (full length protein, SignalChem); purchased SignalChem; conditions: compounds listed under IC50 bin headings
T1 sequence (P48426 1-406): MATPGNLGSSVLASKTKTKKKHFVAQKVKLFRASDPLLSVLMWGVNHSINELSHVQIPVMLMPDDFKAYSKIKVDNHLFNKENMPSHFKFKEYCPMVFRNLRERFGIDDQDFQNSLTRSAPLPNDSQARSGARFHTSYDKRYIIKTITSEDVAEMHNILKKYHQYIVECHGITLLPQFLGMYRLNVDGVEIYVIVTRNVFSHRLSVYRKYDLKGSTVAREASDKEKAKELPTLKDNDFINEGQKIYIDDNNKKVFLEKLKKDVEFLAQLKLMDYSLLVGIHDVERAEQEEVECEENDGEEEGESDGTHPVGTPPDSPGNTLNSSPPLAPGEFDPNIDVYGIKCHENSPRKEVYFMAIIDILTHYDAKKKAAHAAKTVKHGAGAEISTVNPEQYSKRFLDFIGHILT
Procedure, shortened: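 Inhibition was calculated versus DMSO controls from ADP-Glo luminescence and fitted to IC50 over a 10-point, threefold series. Compound was first pre-incubated 15 min at room temperature with PIP4K2A (full-length; 4 nM in the enzyme/substrate mix) and PI(5)P diC8 (100 μM in that mix). The reaction then ran for 1 h after adding 60 μM ATP solution, in MOPS pH 7.2/MgCl2/Tween buffer.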

PIP4K2B = molecular target: T2, PIP4K2B (Homo sapiens, UniProt P78356); test: Trans-FI P kinase assay PIP4K2B (PIP4KtypeIIB inhibition assay); type: biochemical; conditions: compounds listed under IC50 bin headings; 100 uM GTP; read-out: Trans-FI P kinase assays: PIP4K2B IC50
T2 construct: made in house; host or cells: E. coli
T2 sequence (P78356 1-416): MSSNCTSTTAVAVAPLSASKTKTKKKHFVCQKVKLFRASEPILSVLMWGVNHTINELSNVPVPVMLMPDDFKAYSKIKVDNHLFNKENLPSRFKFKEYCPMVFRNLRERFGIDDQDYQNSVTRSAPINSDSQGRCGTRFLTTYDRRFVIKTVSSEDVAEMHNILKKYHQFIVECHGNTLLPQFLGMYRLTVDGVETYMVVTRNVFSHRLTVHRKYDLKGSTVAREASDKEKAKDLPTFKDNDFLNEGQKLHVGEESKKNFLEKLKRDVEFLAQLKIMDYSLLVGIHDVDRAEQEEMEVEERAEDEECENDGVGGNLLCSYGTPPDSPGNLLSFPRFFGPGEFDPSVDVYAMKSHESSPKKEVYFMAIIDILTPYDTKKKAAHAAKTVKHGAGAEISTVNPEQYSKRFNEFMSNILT
Procedure, shortened: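 Transcreener FI fluorescence read-out of GDP formed by E. coli-expressed GST-PIP4K2B (5 nM) using 100 uM GTP and 80 uM PI5P with DOPE carrier lipid, pH 7.3, 2 h reaction. Compounds (up to 4.8 uM) were preincubated with enzyme 1 h at 27 C; IC50 fitted from residual activity relative to no-inhibitor control.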

Structure (SMILES)	IC50 (PIP4K 2A) [nM]	IC50 (PIP4K2B) [nM]
CC1Oc2cc(N3CCCC3=O)c(F)cc2-c2cnc(Nc3cnc4c(c3)N3C(=O)CC[C@@H]3CO4)cc21 (stereo partly drawn) [Example 181, (6aR)-2-((9-fluoro-5-methyl-8-(2-oxopyrrolidin-1-yl)-5H-chromeno[4,3-c]pyridin-3-yl)amino)-6,6a,7,8-tetrahydro-9H-pyrido[2,3-b]pyrrolo[1,2-d][1,4]oxazin-9-one]	1 to 10	1 to 10
O=C1CCCN1c1ccc2c(c1)OCc1cc(Nc3cnc4c(c3)N3C(=O)CC[C@@H]3CO4)ncc1-2 [Example 182, (R)-2-((8-(2-oxopyrrolidin-1-yl)-5H-chromeno[4,3-c]pyridin-3-yl)amino)-6,6a,7,8-tetrahydro-9H-pyrido[2,3-b]pyrrolo[1,2-d][1,4]oxazin-9-one]	1 to 10	1 to 10
CC1(C)Oc2cc(N3CCCC3=O)ccc2-c2cnc(Nc3cnc4c(c3)N3C(=O)CC[C@@H]3CO4)cc21 [Example 183, (R)-2-((5,5-dimethyl-8-(2-oxopyrrolidin-1-yl)-5H-chromeno[4,3-c]pyridin-3-yl)amino)-6,6a,7,8-tetrahydro-9H-pyrido[2,3-b]pyrrolo[1,2-d][1,4]oxazin-9-one]	1 to 10	1 to 10
CC1(C)Oc2cc(N3CCCC3=O)c(F)cc2-c2cnc(Nc3cnc4c(c3)N3C(=O)CC[C@@H]3CO4)cc21 [Example 184, (R)-2-((9-fluoro-5,5-dimethyl-8-(2-oxopyrrolidin-1-yl)-5H-chromeno[4,3-c]pyridin-3-yl)amino)-6,6a,7,8-tetrahydro-9H-pyrido[2,3-b]pyrrolo[1,2-d][1,4]oxazin-9-one]	≤ 1	1 to 10
CC1Oc2cc(N3CCCC3=O)ccc2-c2cnc(Nc3cncc(N4CCN(C)S4(=O)=O)c3)cc21 (centres unmarked) [Example 185, 1-(5-methyl-3-((5-(5-methyl-1,1-dioxido-1,2,5-thiadiazolidin-2-yl)pyridin-3-yl)amino)-5H-chromeno[4,3-c]pyridin-8-yl)pyrrolidin-2-one]	1 to 10	100 to 1000
CN1CCN(c2cncc(Nc3cc4c(cn3)-c3ccc(N5CCCC5=O)cc3OC4(C)C)c2)S1(=O)=O [Example 186, 1-(5,5-dimethyl-3-((5-(5-methyl-1,1-dioxido-1,2,5-thiadiazolidin-2-yl)pyridin-3-yl)amino)-5H-chromeno[4,3-c]pyridin-8-yl)pyrrolidin-2-one]	10 to 100	10 to 100
CC1(C)Oc2cc(N3CCCC3=O)ccc2-c2cnc(Nc3cnc4c(c3)N3C(=O)CC[C@H]3CO4)nc21 [Example 189, (S)-2-((5,5-dimethyl-8-(2-oxopyrrolidin-1-yl)-5H-chromeno[3,4-d]pyrimidin-3-yl)amino)-6,6a,7,8-tetrahydro-9H-pyrido[2,3-b]pyrrolo[1,2-d][1,4]oxazin-9-one]	≤ 1	1 to 10
CC1(C)Oc2cc(N3CCCC3=O)c(F)cc2-c2cnc(Nc3cnc4c(c3)N3C(=O)CC[C@H]3CO4)nc21 [Example 190, (S)-2-((9-fluoro-5,5-dimethyl-8-(2-oxopyrrolidin-1-yl)-5H-chromeno[3,4-d]pyrimidin-3-yl)amino)-6,6a,7,8-tetrahydro-9H-pyrido[2,3-b]pyrrolo[1,2-d][1,4]oxazin-9-one]	≤ 1	1 to 10
COc1ncc(Nc2cc3c(cn2)-c2ccc(N4CCCC4=O)cc2OC3(C)C)cc1NC(C)=O [Example 191, N-(5-((5,5-dimethyl-8-(2-oxopyrrolidin-1-yl)-5H-chromeno[4,3-c]pyridin-3-yl)amino)-2-methoxypyridin-3-yl)acetamide]	100 to 1000	100 to 1000
CC1Oc2cc(N3CCCC3=O)ccc2-c2cnc(Nc3cncc(NC(=O)c4cccc5[nH]cnc45)c3)cc21 (centres unmarked) [Example 196, N-(5-((5-methyl-8-(2-oxopyrrolidin-1-yl)-5H-chromeno[4,3-c]pyridin-3-yl)amino)pyridin-3-yl)-1H-benzo[d]imidazole-7-carboxamide]	1 to 10	10 to 100
